In the supplement of paper PMC10627819:
≈ marks a conversion by molar mass, not a printed value.

How the values were obtained:
B. subtilis 168 [1] = test: Bliss interaction score (quartile over a dose matrix) (fitness difference); higher = more antagonism (negative = synergy)
Method in brief: (§1)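 Quartiles of the Bliss score were taken over technical, biological and donor/recipient replicates. That score is observed fitness minus the product of the single-drug fitness values, which were inferred from combination data. Fitness itself is OD595 at entry into stationary phase divided by the plate's robust no-drug mean, with a cap at 1.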

S. aureus Newman [2] = test: as above
Method in brief: as §1

S. aureus DSM 20231 [3] = test: as above
Method in brief: as §1

S. pneumoniae D39V [4] = test: as above
Method in brief: as §1

S. aureus Newman [5] = test: fitness (endpoint OD595 vs no drug) (fraction); higher = more growth
Method in brief: (§2)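 At 37 °C, bacteria in TSB, LB Lennox or CY were grown in 384-well plates from a starting OD595 of 0.01. OD595 was measured every 30 min for 14 h, with the first reading used as background. Fitness is the optical density at the switch to stationary phase as a fraction of the robust mean of no-drug control wells, capped at 1.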

S. aureus DSM 20231 [6] = test: as above
Method in brief: as §2

B. subtilis 168 [7] = test: as above
Method in brief: as §2

S. pneumoniae D39V [8] = test: as above
Method in brief: as §2

B. subtilis 168 [9] = test system: B. subtilis 168
S. aureus Newman [10] = test system: S. aureus Newman
S. aureus DSM 20231 [11] = test system: S. aureus DSM 20231
S. pneumoniae D39V [12] = test system: S. pneumoniae D39V
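Wherever Bliss interaction score (quartile over a dose matrix) is given: first quartile when negative (synergy) and third quartile when positive (antagonism).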

CN[C@@H]1[C@H](O)[C@H](NC)[C@H]2O[C@@]3(O)C(=O)C[C@@H](C)O[C@H]3O[C@@H]2[C@H]1O [Spectinomycin] + CCCCCCCCCC(=O)N[C@@H]1[C@H]([C@@H]([C@H](O[C@H]1OC2=C3C=C4C=C2OC5=C(C=C(C=C5)[C@H]([C@H]6C(=O)N[C@@H](C7=C(C(=CC(=C7)O)OC8[C@H]([C@H]([C@@H]([C@H](O8)CO)O)O)O)C9=C(C=CC(=C9)[C@H](C(=O)N6)NC(=O)[C@@H]4NC(=O)[C@@H]1C2=CC(=CC(=C2)OC2=C(C=CC(=C2)[C@H](C(=O)N[C@H](CC2=CC(=C(O3)C=C2)Cl)C(=O)N1)N)O)O)O)C(=O)O)O[C@H]1[C@@H]([C@H]([C@@H]([C@H](O1)CO)O)O)NC(=O)C)Cl)CO)O)O [Teicoplanin]
main component drawn
Conditions | Bliss interaction score
B. subtilis 168 [1] | 0.138
S. aureus DSM 20231 [3] | 0.0832
S. aureus Newman [2] | 0.0966
S. pneumoniae D39V [4] | -0.0746

fitness, main component drawn
Conditions | first compound 4 µg/mL | first compound 8 µg/mL | first compound 16 µg/mL
S. aureus DSM 20231 [6], partner 0.1562 µg/mL | 0.938 | ≥ 1 | 0.889
S. aureus DSM 20231 [6], partner 0.3125 µg/mL | 0.962 | 0.969 | 0.919
S. aureus DSM 20231 [6], partner 0.625 µg/mL | ≥ 1 | ≥ 1 | 0.985
S. aureus Newman [5], partner 0.1562 µg/mL | ≥ 1 | ≥ 1 | 0.993
S. aureus Newman [5], partner 0.3125 µg/mL | ≥ 1 | 0.998 | 0.973
S. aureus Newman [5], partner 0.625 µg/mL | 0.817 | 0.705 | 0.831

fitness, one replicate, main component drawn
Conditions | partner 0.1562 µg/mL | partner 0.3125 µg/mL | partner 0.62 µg/mL | partner 0.625 µg/mL | partner 1.24 µg/mL | partner 2.48 µg/mL
S. aureus DSM 20231 [6], first compound 32 µg/mL | 0.788 | 0.834 | – | 0.992 | – | –
S. aureus DSM 20231 [6], first compound 64 µg/mL | 0.0706 | 0.0748 | – | 0.0694 | – | –
S. aureus Newman [5], first compound 4 µg/mL | – | – | 0.792 | – | 0.743 | 0.411
S. aureus Newman [5], first compound 8 µg/mL | – | – | 0.83 | – | 0.68 | 0.505
S. aureus Newman [5], first compound 16 µg/mL | – | – | 0.854 | – | 0.645 | 0.428
S. aureus Newman [5], first compound 32 µg/mL | 0.639 | 0.694 | – | 0.666 | – | –
S. aureus Newman [5], first compound 64 µg/mL | 0.0786 | 0.071 | – | 0.0311 | – | –

CN[C@@H]1[C@H](O)[C@H](NC)[C@H]2O[C@@]3(O)C(=O)C[C@@H](C)O[C@H]3O[C@@H]2[C@H]1O [Spectinomycin] + CN(N=O)C(=O)N[C@@H](C=O)[C@@H](O)[C@H](O)[C@H](O)CO [Streptozotocin]
Conditions | Bliss interaction score
B. subtilis 168 [1] | -0.0285
S. aureus DSM 20231 [3] | 0.0831
S. aureus Newman [2] | -0.046
S. pneumoniae D39V [4] | -0.0505

fitness, one replicate
Conditions | partner 0.15 µg/mL | partner 0.3 µg/mL | partner 0.6 µg/mL | partner 1.2 µg/mL | partner 2.4 µg/mL | partner 4.8 µg/mL
B. subtilis 168 [7], first compound 2 µg/mL | 0.961 | 0.958 | 0.991 | – | – | –
B. subtilis 168 [7], first compound 4 µg/mL | ≥ 1 | ≥ 1 | ≥ 1 | – | – | –
B. subtilis 168 [7], first compound 8 µg/mL | 0.977 | 0.832 | 0.926 | – | – | –
S. aureus DSM 20231 [6], first compound 32 µg/mL | 0.674 | 0.696 | 0.686 | – | – | –
S. aureus DSM 20231 [6], first compound 64 µg/mL | 0.0638 | 0.0605 | 0.0885 | – | – | –
S. aureus Newman [5], first compound 32 µg/mL | 0.519 | 0.423 | 0.0868 | – | – | –
S. aureus Newman [5], first compound 64 µg/mL | 0.0732 | 0.067 | 0.0303 | – | – | –
S. pneumoniae D39V [8], first compound 16 µg/mL | – | – | – | 0.764 | 0.841 | 0.686

fitness
Conditions | partner 0.15 µg/mL | partner 0.3 µg/mL | partner 0.6 µg/mL | partner 1.2 µg/mL | partner 2.4 µg/mL | partner 4.8 µg/mL
S. aureus DSM 20231 [6], first compound 4 µg/mL | 0.831 | 0.761 | 0.757 | – | – | –
S. aureus DSM 20231 [6], first compound 8 µg/mL | 0.875 | 0.798 | 0.754 | – | – | –
S. aureus DSM 20231 [6], first compound 16 µg/mL | 0.769 | 0.781 | 0.722 | – | – | –
S. aureus Newman [5], first compound 4 µg/mL | 0.818 | 0.665 | 0.51 | – | – | –
S. aureus Newman [5], first compound 8 µg/mL | 0.812 | 0.631 | 0.478 | – | – | –
S. aureus Newman [5], first compound 16 µg/mL | 0.813 | 0.614 | 0.427 | – | – | –
S. pneumoniae D39V [8], first compound 4 µg/mL | – | – | – | 0.947 | 0.928 | 0.913
S. pneumoniae D39V [8], first compound 8 µg/mL | – | – | – | 0.847 | 0.832 | 0.81

CN[C@@H]1[C@H](O)[C@H](NC)[C@H]2O[C@@]3(O)C(=O)C[C@@H](C)O[C@H]3O[C@@H]2[C@H]1O [Spectinomycin] + CN[C@H](CC(C)C)C(=O)N[C@H]1C(=O)N[C@@H](CC(N)=O)C(=O)N[C@H]2C(=O)N[C@H]3C(=O)N[C@H](C(=O)N[C@H](C(=O)O)c4cc(O)cc(O)c4-c4cc3ccc4O)[C@H](O)c3ccc(c(Cl)c3)Oc3cc2cc(c3O[C@@H]2O[C@H](CO)[C@@H](O)[C@H](O)[C@H]2O[C@H]2C[C@](C)(N)[C@H](O)[C@H](C)O2)Oc2ccc(cc2Cl)[C@H]1O [Vancomycin]
Conditions | Bliss interaction score
B. subtilis 168 [1] | 0.0821
S. aureus DSM 20231 [3] | -0.059
S. aureus Newman [2] | 0.0699
S. pneumoniae D39V [4] | -0.0797

fitness
Conditions | first compound 4 µg/mL | first compound 8 µg/mL | first compound 16 µg/mL
S. aureus DSM 20231 [6], partner 0.1875 µg/mL | 0.906 | 0.938 | 0.85
S. aureus DSM 20231 [6], partner 0.375 µg/mL | 0.898 | 0.893 | 0.774
S. aureus DSM 20231 [6], partner 0.75 µg/mL | ≥ 1 | 0.985 | 0.908
S. aureus Newman [5], partner 0.1875 µg/mL | 0.945 | 0.971 | 0.906
S. aureus Newman [5], partner 0.375 µg/mL | 0.916 | 0.979 | 0.921
S. aureus Newman [5], partner 0.75 µg/mL | 0.928 | 0.946 | 0.892
S. pneumoniae D39V [8], partner 0.03125 µg/mL | 0.979 | 0.933 | 0.835
S. pneumoniae D39V [8], partner 0.0625 µg/mL | 0.902 | 0.918 | 0.804
S. pneumoniae D39V [8], partner 0.125 µg/mL | – | 0.878 | –

fitness, one replicate
Conditions | partner 0.1875 µg/mL | partner 0.25 µg/mL | partner 0.375 µg/mL | partner 0.5 µg/mL | partner 0.75 µg/mL
S. aureus DSM 20231 [6], first compound 32 µg/mL | 0.741 | – | 0.74 | – | 0.737
S. aureus DSM 20231 [6], first compound 64 µg/mL | 0.0522 | – | 0.0729 | – | 0.0868
S. aureus Newman [5], first compound 32 µg/mL | 0.636 | – | 0.623 | – | 0.613
S. aureus Newman [5], first compound 64 µg/mL | 0.119 | – | 0.071 | – | 0.0594
S. pneumoniae D39V [8], first compound 4 µg/mL | – | 0.437 | – | 0.0734 | –
S. pneumoniae D39V [8], first compound 8 µg/mL | – | 0.293 | – | 0.0189 | –

CN[C@@H]1[C@H](O)[C@H](NC)[C@H]2O[C@@]3(O)C(=O)C[C@@H](C)O[C@H]3O[C@@H]2[C@H]1O [Spectinomycin] + Cn1nnc(-c2ccc(-c3ccc(N4C[C@H](CO)OC4=O)cc3F)cn2)n1 [Tedizolid]
Conditions | Bliss interaction score
B. subtilis 168 [1] | -0.0466
S. aureus DSM 20231 [3] | 0.0654
S. aureus Newman [2] | -0.111
S. pneumoniae D39V [4] | -0.0885

fitness
Conditions | first compound 4 µg/mL | first compound 8 µg/mL | first compound 16 µg/mL
S. aureus DSM 20231 [6], partner 0.0625 µg/mL | 0.964 | 0.916 | 0.744
S. aureus DSM 20231 [6], partner 0.125 µg/mL | 0.657 | 0.678 | 0.641
S. aureus DSM 20231 [6], partner 0.25 µg/mL | 0.257 | 0.225 | 0.199
S. aureus Newman [5], partner 0.0625 µg/mL | 0.922 | 0.939 | –
S. pneumoniae D39V [8], partner 0.03125 µg/mL | 0.87 | 0.914 | 0.78
S. pneumoniae D39V [8], partner 0.0625 µg/mL | 0.888 | 0.955 | 0.807
S. pneumoniae D39V [8], partner 0.125 µg/mL | 0.815 | 0.807 | 0.729

fitness, one replicate
Conditions | partner 0.0625 µg/mL | partner 0.125 µg/mL | partner 0.25 µg/mL | partner 0.5 µg/mL
S. aureus DSM 20231 [6], first compound 32 µg/mL | 0.406 | 0.202 | 0.0234 | –
S. aureus DSM 20231 [6], first compound 64 µg/mL | 0.0239 | 0.0268 | 0.0093 | –
S. aureus Newman [5], first compound 32 µg/mL | 0.101 | 0.0307 | 0.0315 | –
S. aureus Newman [5], first compound 64 µg/mL | 0.0254 | 0.023 | 0.0159 | –
S. pneumoniae D39V [8], first compound 4 µg/mL | – | – | 0.73 | 0.362
S. pneumoniae D39V [8], first compound 8 µg/mL | – | – | 0.724 | 0.416

CN[C@@H]1[C@H](O[C@H]2[C@H](O[C@H]3[C@H](O)[C@@H](O)[C@H](N=C(N)N)[C@@H](O)[C@@H]3N=C(N)N)O[C@@H](C)[C@]2(O)C=O)O[C@@H](CO)[C@H](O)[C@H]1O [Streptomycin]
Conditions | MIC [µg/mL]
B. subtilis 168 [9] | 8 (≈ 13.8 µM)
S. aureus DSM 20231 [11] | 8 (≈ 13.8 µM)
S. aureus Newman [10] | 8 (≈ 13.8 µM)
S. pneumoniae D39V [12] | 8 (≈ 13.8 µM)

fitness
Conditions | 1 µg/mL | 2 µg/mL | 4 µg/mL | 8 µg/mL
B. subtilis 168 [7] | – | 0.954 | 0.775 | 0.0378
S. aureus Newman [5] | 0.971 | 0.954 | 0.899 | 0.579
S. pneumoniae D39V [8] | – | 0.932 | 0.943 | 0.914
